Experimental data: patent US5250542A, “Peripherally selective piperidine carboxylate opioid antagonists” (Eli Lilly and Company, priority 1992, dated 1993)
Structures can show the parent of a compound that is named as a salt. Where two headings read alike, the source gives them in different places.

Assays:
[1] = molecular target: T1, opioid receptor (Mus musculus, UniProt P42866); experiment: mouse writhing analgesis test: block of morphine-induced analgesia; assay type: in vivo, CF-1 male mice; design: unit not given here; conditions: dose of antagonist that reduced the inhibition of writhing produced by 1.25 mg/kg morphine sulfate to 50%; subcutaneous, 20 min before acetic acid
T1 construct: Five CF-1 male mice (Charles River, Portage, Mich.); from tissue; host or cells: living CF-1 male mice (in vivo test; endogenous receptor)
T1 sequence (P42866 whole entry): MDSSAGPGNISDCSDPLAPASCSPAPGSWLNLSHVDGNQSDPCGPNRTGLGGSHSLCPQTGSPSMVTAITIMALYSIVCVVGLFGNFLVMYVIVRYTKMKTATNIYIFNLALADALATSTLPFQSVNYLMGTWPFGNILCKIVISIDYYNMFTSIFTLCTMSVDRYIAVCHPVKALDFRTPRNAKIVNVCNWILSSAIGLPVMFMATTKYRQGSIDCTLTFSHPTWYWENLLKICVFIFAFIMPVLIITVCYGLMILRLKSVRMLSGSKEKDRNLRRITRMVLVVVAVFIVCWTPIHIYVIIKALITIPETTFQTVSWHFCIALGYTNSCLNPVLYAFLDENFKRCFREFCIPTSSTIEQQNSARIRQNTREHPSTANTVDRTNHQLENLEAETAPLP
In short: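 Male CF-1 mice (~20 g, fasted overnight, n=5) dosed subcutaneously 20 min before i.p. 0.6% acetic acid; writhes counted for 10 min starting 5 min post-injection. Antagonism measured as blockade of morphine-induced inhibition of writhing, percent versus vehicle controls; ED50 defined as 50% writhing inhibition.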

[2] = molecular target: T2, peripheral opioid receptors (Mus musculus, UniProt P42866); experiment: precipitated diarrhea in morphine-maintained mice (peripheral opioid activity) and comparison with the writhing test; assay type: in vivo; conditions: for Ratio (AD50 mouse writhing test / ED50 mouse diarrhea test): higher ratio = greater relative antagonism of peripheral opioid receptors; for ED50: mouse, 0.5 h, morphine-maintained mice, antagonist subcutaneous or oral, 30 min observation
T2 construct: Mice maintained (6 mice/cage) on 0.01M saccharin water with 1 g/1 morphine sulfate; from tissue; host or cells: living morphine-maintained mice (in vivo test; endogenous receptor)
T2 sequence (P42866 whole entry): as above
In short: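 Morphine-dependent mice (1 g/l morphine sulfate in drinking water ≥10 days, withdrawn 45 min before dosing) received antagonist subcutaneously or orally, 5 mice/dose. Diarrhea (and jumping) were scored over 30 min and doses lowered to find the diarrhea threshold. Peripheral selectivity was taken as writhing AD50 divided by diarrhea ED50.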

[3] = molecular target: T3, mu receptor (Rattus norvegicus, UniProt P33535); experiment: opioid receptor binding assay, [3H] NAL (tritiated naloxone), mu receptor; design: species or system rat (Male Sprague Dawley), brain minus cerebellum; conditions: for inhibition at 0.01 µM / inhibition at 0.1 µM: 20 min; for inhibition at 0.01 µM: read-out: % displacement at 10 nM, 10 nM test compound
T3 construct: rat whole brain minus cerebellum for mu was homogenized; from tissue; host or cells: brain of male Sprague Dawley rats, whole brain minus cerebellum, homogenate fraction
T3 sequence (P33535 whole entry): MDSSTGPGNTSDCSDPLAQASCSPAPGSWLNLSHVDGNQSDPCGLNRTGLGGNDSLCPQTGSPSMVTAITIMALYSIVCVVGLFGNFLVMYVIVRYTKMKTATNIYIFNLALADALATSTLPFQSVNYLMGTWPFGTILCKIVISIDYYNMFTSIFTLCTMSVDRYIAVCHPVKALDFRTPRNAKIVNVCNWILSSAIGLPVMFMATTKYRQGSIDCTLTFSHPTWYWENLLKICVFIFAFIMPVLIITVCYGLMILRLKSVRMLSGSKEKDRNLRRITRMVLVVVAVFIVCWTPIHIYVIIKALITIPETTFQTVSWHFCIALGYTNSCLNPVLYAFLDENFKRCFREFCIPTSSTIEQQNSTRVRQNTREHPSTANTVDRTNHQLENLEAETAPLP
In short: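 Displacement of [3H]naloxone was measured on rat whole brain minus cerebellum membranes, preincubated 20 min and incubated 20 min at 37° C, with filtration separating bound ligand. Ki was derived from IC50 and ligand KD. Percent displacement was also recorded at 10 nM and 100 nM test compound.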

[4] = read-out: % displacement at 100 nM, 100 nM test compound, [3H] naloxone 0.5 nM
[5] = read-out: % displacement at 100 nM

Row | SMILES | AD50 [1] | Ratio (AD50 mouse writhing test / ED50 mouse diarrhea test) [2] | ED50 [2] [mg/kg] | Ki [3] [nM] | inhibition at 0.01 µM ([3]; [3H] naloxone 0.5 nM) [%] | inhibition at 0.1 µM [3, 4] [%] | inhibition at 0.1 µM [3, 5] [%]
1 | CCOC(=O)CCNC(=O)C(CC1CCCCC1)CN1CC[C@@](C)(c2cccc(O)c2)[C@@H](C)C1 (stereo partly drawn) [Example 36, 3-[[2-(cyclohexylmethyl)-3-[4-(3-hydroxyphenyl)-3,4-dimethyl-1-piperidinyl]-1-oxo-propyl]amino]propanoic acid ethyl ester monohydrochloride] | 3.8 | 12 | 0.32 | 0.47 | 79 | 86 | –
2 | CCNC(=O)CCNC(=O)C(CC1CCCCC1)CN1CC[C@@](C)(c2cccc(O)c2)[C@@H](C)C1 (stereo partly drawn) [Example 37, monohydrochloride] | 3.9 | 43 | 0.09 | 1.09 | 93 | – | 97
3 | C[C@H]1CN(CC(CC2CCCCC2)C(=O)NCCC(N)=O)CC[C@@]1(C)c1cccc(O)c1 (stereo partly drawn) [Example 38, 3-[[1-oxo-2-cyclohexylmethyl)-3-[4-(3-hydroxyphenyl)-3,4-dimethyl-1-piperidinyl]propyl]-amino]propanamide hydrochloride] | > 40 | > 667 | 0.06 | 0.48 | 98 | 99 | –
4 | CCOC(=O)CCCNC(=O)C(CC1CCCCC1)CN1CC[C@@](C)(c2cccc(O)c2)[C@@H](C)C1 (stereo partly drawn) [Example 39, 4-[[3-[3,4-dimethyl-4-(3-hydroxyphenyl)-1-piperidinyl]-2-(cyclohexhymethyl)-1-oxopropyl]-amino]butanoic acid ethyl ester monohydrochloride] | 11.9 | 18 | 0.66 | 3.75 | 91 | – | 98
5 | C[C@H]1CN(CC(CC2CCCCC2)C(=O)NCCCC(N)=O)CC[C@@]1(C)c1cccc(O)c1 (stereo partly drawn) [Example 40, 4-[[1-oxo-2-(cyclohexylmethyl)-3-[4-(3-hydroxyphenyl)-3,4-dimethyl-1-piperidinyl]propyl]-amino]butanamide hydrochloride] | 4.5 | 3.5 | 1.3 | 0.75 | 95 | 100 | –
6 | CNC(=O)CCCNC(=O)C(CC1CCCCC1)CN1CC[C@@](C)(c2cccc(O)c2)[C@@H](C)C1 (stereo partly drawn) [Example 41, N-[4-(methylamino)-4-oxobutyl]-3-[4-(3-hydroxyphenyl)-3,4-dimethyl-1-piperidinyl]-2-cyclohexylmethylpropanamide monohydrochloride] | 4.5 | 26 | 0.17 | 0.39 | 100 | 100 | –
7 | CCNC(=O)CCCNC(=O)C(CC1CCCCC1)CN1CC[C@@](C)(c2cccc(O)c2)[C@@H](C)C1 (stereo partly drawn) [Example 42, N-[4-(ethylamino)-4-oxobutyl]-3-[4-(3--hydroxyphenyl)-3,4-dimethyl-1-piperidinyl[-2-cyclohexyl-methylpropanamide monohydrate hydrochloride] | 2.1 | 8 | 0.26 | 0.57 | 100 | – | 97
8 | CCOC(=O)CNC(=O)C(Cc1ccccc1)CN1CC[C@@](C)(c2cccc(O)c2)[C@@H](C)C1 (stereo partly drawn) [Example 43, 2-[3-[4-(3-hydroxyphenyl)-3,4-dimethyl-1-piperidinyl]-1-oxo-2-(phenylmethyl)propyl]-amino]acetic acid ethyl ester hydrochloride] | 1.9 | 146 | 0.013 | 0.64 | 98 | 99 | –
